Values quoted from earlier work, collected in publication PMC10894724 (Chemistry (Weinheim an der Bergstrasse, Germany), 2023).

Tested on: P. falciparum Dd2 strain

## CCCCCC(=O)N[C@H](C(=O)N[C@@H](CCS(C)(=O)=O)C(=O)N[C@@H](CC(C)C)C(=O)[C@@]1(C)CO1)C(C)C [carmaphycin B]
  selectivity for asexual blood stage P. falciparum cells over human HepG2 cells: 3 fold
